Read-outs that look alike come from different tables or passages of the source.
How the values were obtained:
in vivo = settings: mouse, mortality over 5 days, confidence limits: 95%
Protocol: Acute toxicity: The acute toxicity for oral and intravenous administration was evaluated for CD1 male mice of average weight 20 g. The mortality was recorded over a period of 5 days following the administration of the compounds.

β1 -adrenergic receptors = target: T1, β1 -adrenergic receptors (Rattus norvegicus, UniProt P18090); experiment: Studies on isolated organs: antagonism of isoprenaline-induced tachycardia and increase in contractile force in isolated rat auricles (pA2); parameters: species or system rats; settings: for Effect on inotropism, ratio of activity to that of metoprolol: isoprenaline contractile force; for Effect on inotropism, ratio of activity to that of metoprolol / Effect on chronotropism, ratio of activity to that of metoprolol: metoprolol = 1.0; for Kb / pA2, effect on chronotropism / pA2, effect on inotropism: 31° C.
T1 construct: from tissue; host or cells: isolated rat auricles (atria)

[1] = intravenous administration, read-out: LD50 intravenous administration
[2] = oral administration, read-out: LD50 oral administration
[3] = isoprenaline increase in contractile force, read-out: pA2, effect on inotropism (converted)
[4] = isoprenaline tachycardia, read-out: pA2, effect on chronotropism (converted)
[5] = isoprenaline increase in contractile force

T1 sequence (P18090 whole entry): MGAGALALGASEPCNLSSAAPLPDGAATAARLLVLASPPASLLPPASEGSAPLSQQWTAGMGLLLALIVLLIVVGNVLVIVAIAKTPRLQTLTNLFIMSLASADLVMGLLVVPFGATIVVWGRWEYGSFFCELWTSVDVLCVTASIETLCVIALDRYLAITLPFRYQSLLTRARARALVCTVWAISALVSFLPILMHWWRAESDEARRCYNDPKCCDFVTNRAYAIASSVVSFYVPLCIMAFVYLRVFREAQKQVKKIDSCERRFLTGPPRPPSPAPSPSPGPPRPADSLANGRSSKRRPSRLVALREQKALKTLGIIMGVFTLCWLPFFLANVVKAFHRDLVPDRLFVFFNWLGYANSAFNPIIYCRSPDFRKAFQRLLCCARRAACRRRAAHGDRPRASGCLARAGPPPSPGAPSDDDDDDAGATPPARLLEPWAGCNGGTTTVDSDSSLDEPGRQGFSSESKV

Row | Effect on inotropism, ratio of activity to that of metoprolol (β1 -adrenergic receptors) | Kb (β1 -adrenergic receptors; [3]) | pA2, effect on chronotropism (β1 -adrenergic receptors; isoprenaline tachycardia) | Effect on chronotropism, ratio of activity to that of metoprolol (β1 -adrenergic receptors; isoprenaline tachycardia) | Kb (β1 -adrenergic receptors; [4]) | pA2, effect on inotropism (β1 -adrenergic receptors; [5]) | SMILES | LD50 at 120 h (in vivo; [1]) | LD50 at 120 h (in vivo; [2])
1 | – | – | – | – | – | – | COCCc1ccc(OCC(O)CNC(C)C)cc1 (stereo not shown) [METOPROLOL, 1-[4-(2-methoxy-ethyl)-phenoxy]-3-isopropylamino-propan-2-ol, reference compound] | 62 mg/kg | 1050 mg/kg
2 | 0.09 | 0.132 µM | 7.11 | 0.3 | – | – | CC(C)NCC(O)COc1ccc(CCSCC2CCC2)cc1 (stereo not shown) [SL D.056, 1-[4-(2-Cyclobutylmethylthio-ethyl)-phenoxy]-3-isopropylamino-propan-2-ol] | – | –
3 | – | – | – | – | – | – | CC(C)NCC(O)COc1ccc(CCOCC2CC2)cc1 (stereo not shown) [SL D.212, 1-{4-[2-(Cyclopropylmethoxy)ethyl]-phenoxy}-3-isopropylamino-propan-2-ol] | 37 mg/kg | 944 mg/kg
4 | – | – | – | – | – | – | CC(C)NCC(O)COc1ccc(COCC2CC2)cc1 (stereo not shown) [SL D.224, 1-[4-(cyclopropylmethoxymethyl)-phenoxy]-3-isopropylamino-propan-2-ol] | 88 mg/kg | 1400 mg/kg
5 | – | – | – | – | – | – | CC(C)NCC(O)COc1ccc(CCOCC2CCC2)cc1 (stereo not shown) [SL D.254, 1-{4-[2-(Cyclobutylmethoxy)-ethyl]-phenoxy}-3-isopropylamino-propan-2-ol] | 28 mg/kg | 658 mg/kg
6 | 0.8 | 0.0148 µM | – | 1.3 | 0.0174 µM | – | CC(C)NCC(O)COc1ccc(OCCSCC2CC2)cc1 (stereo not shown) [SL D.299, 1-[4-(2-Cyclopropylmethylthio-ethoxy)-phenoxy]-3-isopropylamino-propan-2-ol] | – | –
7 | 0.02 | 0.617 µM | 6.47 | 0.07 | – | – | CC(CC#N)NCC(O)COc1ccc(CCOCC2CCC2)cc1 (stereo not shown) [SL E.024, 1-[4-(2-Cyclobutylmethoxy-ethyl)-phenoxy]-3-(1-methyl-2-cyano-ethylamino)-propan-2-ol] | – | –
8 | 0.2 | – | – | 0.6 | 0.0372 µM | 7.21 | CC(=O)NCCNCC(O)COc1ccc(CCOCC2CCC2)cc1 (stereo not shown) [SL E.025, 1-[4-(2-Cyclobutylmethoxy-ethyl)-phenoxy]-3-(2-acetylamino-ethylamino)-propan-2-ol] | – | –
9 | 0.01 | 1.23 µM | 5.11 | – | – | – | CC(CCc1ccccc1)NCC(O)COc1ccc(CCOCC2CCC2)cc1 (stereo not shown) [SL E.049] | – | –
10 | 0.02 | 0.692 µM | 5.54 | – | – | – | CC(CCc1ccc(F)cc1)NCC(O)COc1ccc(CCOCC2CCC2)cc1 (stereo not shown) [SL E.059] | – | –
11 | 1.0 | – | – | 1.9 | 0.0117 µM | 7.94 | CC(C)NCC(O)COc1ccc(CCS(=O)(=O)CC2CCC2)cc1 (stereo not shown) [SL E.060, 1-[4-(2-Cyclobutylmethylsulphonyl-ethyl)phenoxy]-3-isopropylamino-propan-2-ol] | – | –
12 | 0.1 | 0.0891 µM | 7.02 | 0.2 | – | – | CC(C)NCC(O)COc1ccc(CCCOCC2CCC2)cc1 (stereo not shown) [SL E.061] | – | –
13 | 0.4 | 0.0302 µM | 7.44 | 0.6 | – | – | CC(C)NCC(O)COc1ccc(COCC2CCC2)cc1 (stereo not shown) [SL E.080] | – | –
14 | 2.2 | 0.00513 µM | – | 4.1 | 0.00562 µM | – | CC(C)NCC(O)COc1ccc(OCCOCC2CCC2)cc1 (stereo not shown) [SL E.096, 1-[4-(2-cyclobutylmethoxyethoxy)-phenoxy]-3-isopropylamino-propan-2-ol] | – | –
15 | 0.1 | 0.0741 µM | 7.75 | 1.3 | – | – | COc1ccc(CCNCC(O)COc2ccc(CCOCC3CCC3)cc2)cc1OC (stereo not shown) [SL E.111] | – | –
16 | 0.08 | 0.141 µM | – | 0.1 | 0.162 µM | – | CC(C)NCC(O)COc1ccc(OCCS(=O)(=O)CC2CC2)cc1 (stereo not shown) [SL E.155, 1-[4-(2-Cyclopropylmethylsulphonyl-ethoxy)phenoxy]-3-isopropylamino-propan-2-ol] | – | –
17 | 1.00 | 0.0107 µM | – | 4.17 | 0.0055 µM | – | CC(C)NCC(O)COc1ccc(OCCOCC2CCCC2)cc1 (stereo not shown) [SL E.203] | – | –

Row | SMILES | Effect on inotropism, ratio of activity to that of metoprolol (β1 -adrenergic receptors) | Kb (β1 -adrenergic receptors; [3]) | pA2, effect on chronotropism (β1 -adrenergic receptors; isoprenaline tachycardia) | Effect on chronotropism, ratio of activity to that of metoprolol (β1 -adrenergic receptors; isoprenaline tachycardia) | Kb (β1 -adrenergic receptors; [4]) | pA2, effect on inotropism (β1 -adrenergic receptors; [5]) | LD50 at 120 h (in vivo; [1]) | LD50 at 120 h (in vivo; [2])
18 | CC(C)NCC(O)COc1ccc(OCCOCC2CC2)cc1 (stereo not shown) [SL D.177, 1-{4-[2-(cyclopropylmethoxy)-ethoxy]-phenoxy}-3-isopropylamino-propan-2-ol] | 1.1 | 0.0107 µM | – | 2.8 | 0.00813 µM | – | 76 mg/kg | 610 mg/kg
19 | CC(C)(C)NCC(O)COc1ccc(OCCOCC2CC2)cc1 (stereo not shown) [SL D.178, 1-{4-[2-(Cyclopropylmethoxy)-ethoxy]-phenoxy}-3-t-butylamino-propan-2-ol] | 1.0 | 0.011 µM | – | 1.4 | 0.02 µM | – | 53 mg/kg | 445 mg/kg
20 | CC(C)NCC(O)COc1ccc(OCC2CC2)cc1 (stereo not shown) [SL D.230, 1-[4-(Cyclopropylmethoxy)-phenoxy]-3-isopropylamino-propan-2-ol] | 2.1 | 0.00537 µM | – | 4.6 | 0.00501 µM | – | 48 mg/kg | 750 mg/kg
21 | CC(C)(C)NCC(O)COc1ccc(OCC2CC2)cc1 (stereo not shown) [SL D.231, 1-[4-(Cyclopropylmethoxy)-phenoxy]-3-t-butylamino-propan-2-ol] | 0.3 | 0.0339 µM | – | 0.8 | 0.0288 µM | – | 36 mg/kg | 1200 mg/kg
22 | CC(C)NCC(O)COc1ccc(CCOCC2CCCCC2)cc1 (stereo not shown) [SL D.268, 1-{4-[2-(Cyclohexylmethoxy)-ethyl]-phenoxy}-3-isopropylamino-propan-2-ol] | 0.03 | 0.398 µM | 6.84 | 0.2 | – | – | 35 mg/kg | –
23 | CC(C)NCC(O)COc1ccc(CCOCC2CCCC2)cc1 (stereo not shown) [SL D.291] | 0.08 | 0.148 µM | 6.89 | 0.2 | – | – | 56 mg/kg | –
24 | CC(C)NCC(O)COc1ccc(OCCCC2CC2)cc1 (stereo not shown) [SL D.311, 1-(4-Cyclopropylpropoxy-phenoxy)-3-isopropylamino-propan-2-ol] | 0.2 | 0.0525 µM | – | 0.2 | 0.0912 µM | – | 71 mg/kg | –

— patent US4252984A, “Phenol ethers” (Synthelabo, priority 1975, dated 1981)
